Here are results for 19 compounds from patent publication US11780851B2, “LRRK2 inhibitors” (H. Lundbeck A/S, priority 2021, dated 2023).

Broadly, the IC50 is the concentration that inhibits the measured activity by half.

For assay [1], the target named is T1, LRRK2 G2019S (Homo sapiens, UniProt Q5S007, G2019S).
T1 construct: purchased Invitrogen (Life Technologies Corporation)
As to the kind of experiment: LRRK2 G2019S kinase activity assay (LanthaScreen TR-FRET). It is filed as biochemical. The note with it: 250 pM LRRK2 G2019S, 1.3 mM ATP, 3 h at 30° C.; n≥2 tests. The procedure: (§1) LRRK2 kinase activity was measured using a LanthaScreen kinase activity assay available from Invitrogen (Life Technologies Corporation). The assay is a homogeneous time resolved-fluorescence resonance energy transfer (TR-FRET) assay that measures phosphorylation of a fluorescein-labelled peptide substrate Fluorescein-ERM LRRKtide obtainable from Life Technologies Corporation as a result of LRRK2 kinase activity. The phosphorylated peptide is recognized by a terbium-labelled phospho-specific anti-LRRKtide antibody (pLRRKtide antibody), obtainable from Life Technologies Corporation and, subsequently, the phosphorylated LRRKtide can be quantified by the extent of TR-FRET between the terbium donor and fluorescein acceptor. The LRRK2 kinase was obtained from Invitrogen (Life Technologies Corporation) and comprises residue 970 to 2527 of the full length human wild-type LRRK2 kinase, or a similar sequence with the G2019S mutation. As discussed above, this mutation increases the kinase activity relative to the wild type. The kinase reactions were performed in a 20 μL volume in 384-well plates. […] The mixture was further incubated for 30 minutes at RT. […] The measurement was repeated 30 times for fluorescein and 30 times for terbium emission with a 1000 μs time window between repeats. TR-FRET measurements were performed on a Biotek Synergy plate. The TR-FRET signal was calculated as the emission-ratio at 520 nm over 495 nm. The TR-FRET ratio readout for test compounds was normalized to 0% inhibition corresponding to TR-FRET ratio measured in control wells with no inhibition of the kinase activity and 100% inhibition corresponding to TR-FRET ratio measured in control wells with inhibitor. […] C is the IC50 value and D is the Hill slope coefficient. IC50 estimates were obtained from independent experiment and the logarithmic average was calculated.

For assay [2], the target named is T2, LRRK2 WT (Homo sapiens, UniProt Q5S007).
T2 construct: comprises residue 970 to 2527 of the full length human wild-type LRRK2 kinase; purchased Invitrogen (Life Technologies Corporation)
T2 sequence (Q5S007 970-2527): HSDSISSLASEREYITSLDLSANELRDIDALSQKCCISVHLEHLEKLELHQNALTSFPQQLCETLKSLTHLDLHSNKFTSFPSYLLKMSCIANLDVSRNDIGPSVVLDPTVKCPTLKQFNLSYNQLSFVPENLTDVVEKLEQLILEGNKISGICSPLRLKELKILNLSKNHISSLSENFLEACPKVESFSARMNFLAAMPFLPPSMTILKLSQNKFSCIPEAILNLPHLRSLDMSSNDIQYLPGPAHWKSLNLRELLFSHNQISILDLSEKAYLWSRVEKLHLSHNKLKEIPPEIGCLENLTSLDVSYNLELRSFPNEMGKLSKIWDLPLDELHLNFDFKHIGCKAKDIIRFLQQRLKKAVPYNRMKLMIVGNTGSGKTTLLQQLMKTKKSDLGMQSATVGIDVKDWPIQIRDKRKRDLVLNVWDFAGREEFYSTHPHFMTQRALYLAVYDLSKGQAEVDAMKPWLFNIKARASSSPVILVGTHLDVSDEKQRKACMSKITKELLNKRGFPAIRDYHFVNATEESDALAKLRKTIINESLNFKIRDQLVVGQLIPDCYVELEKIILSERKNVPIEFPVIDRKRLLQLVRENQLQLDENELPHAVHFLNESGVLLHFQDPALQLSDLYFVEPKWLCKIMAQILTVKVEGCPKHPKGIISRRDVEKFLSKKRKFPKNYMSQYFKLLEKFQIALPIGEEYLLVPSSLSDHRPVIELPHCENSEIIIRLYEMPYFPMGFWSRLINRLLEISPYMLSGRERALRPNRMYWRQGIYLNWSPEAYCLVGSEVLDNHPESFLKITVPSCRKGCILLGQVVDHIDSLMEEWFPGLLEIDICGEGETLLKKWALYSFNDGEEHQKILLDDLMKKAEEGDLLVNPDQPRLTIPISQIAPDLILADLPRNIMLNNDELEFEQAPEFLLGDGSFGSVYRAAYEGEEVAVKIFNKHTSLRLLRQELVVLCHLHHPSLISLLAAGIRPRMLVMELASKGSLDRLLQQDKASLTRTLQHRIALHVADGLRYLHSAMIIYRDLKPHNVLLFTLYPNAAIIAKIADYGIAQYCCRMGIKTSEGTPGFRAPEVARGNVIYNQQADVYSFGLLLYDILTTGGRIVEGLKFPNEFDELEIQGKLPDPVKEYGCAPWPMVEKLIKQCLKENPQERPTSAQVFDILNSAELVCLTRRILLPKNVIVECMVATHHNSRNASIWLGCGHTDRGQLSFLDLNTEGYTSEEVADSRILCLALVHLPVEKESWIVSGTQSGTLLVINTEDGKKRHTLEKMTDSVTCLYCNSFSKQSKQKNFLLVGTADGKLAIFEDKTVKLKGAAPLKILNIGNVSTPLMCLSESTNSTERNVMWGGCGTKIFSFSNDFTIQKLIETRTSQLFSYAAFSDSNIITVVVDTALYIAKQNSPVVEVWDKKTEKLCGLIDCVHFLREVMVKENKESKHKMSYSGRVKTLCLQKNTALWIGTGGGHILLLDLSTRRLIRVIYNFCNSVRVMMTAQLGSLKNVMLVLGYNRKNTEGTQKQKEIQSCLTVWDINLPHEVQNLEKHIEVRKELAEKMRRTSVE
In words: LRRK2 wild-type kinase activity assay (LanthaScreen TR-FRET). It is filed as biochemical. The note with it: 1 nM LRRK2 WT, 1.3 mM ATP, 3.5 h at 30° C.; n≥2 tests. The protocol: as §1
(In general: Time-resolved FRET reads energy transfer from a long-lived donor to a nearby acceptor.)

T1 sequence (Q5S007 970-2527 G2019S): as the sequence (Q5S007 970-2527) above, with G1050S counted along it

With `Cc1c2c(nn1[C@@H]1CCOC3(CC3)C1)OCCCn1nc(Cl)c3cnc(nc31)N2` (single isomer, unassigned) [Example 54, (−)-(R) or (S)-8-Chloro-3-methyl-2-(4-oxaspiro[2.5]octan-7-yl)-2,4,12,13-tetrahydro-11H-5,7-(azenometheno)dipyrazolo[3,4-b:5′,1′-g][1]oxa[4,6,8]triazacycloundecine], the half-maximal inhibitory concentration (IC50) in assay [1] was determined as 0.88 nM; in assay [2], 2.6 nM.

Consider `CCc1c2c(nn1[C@@H]1CCOC[C@H]1F)OCCCn1nc(Cl)c3cnc(nc31)N2` (single isomer, unassigned) [Example 55, (+)-8-Chloro-3-ethyl-2-((3R,4S) or (3S,4R)-3-fluorotetrahydro-2H-pyran-4-yl)-2,4,12,13-tetrahydro-11H-5,7-(azenometheno)dipyrazolo[3,4-b:5′,1′-g][1]oxa[4,6,8]triazacycloundecine], for which the IC50 in assay [1] is 1.5 nM; in assay [2] it was 5.6 nM.

For `CCc1c2c(nn1[C@@H]1CCOC[C@H]1F)OCCCn1nc(Cl)c3cnc(nc31)N2` (single isomer, unassigned) [Example 56, (−)-8-Chloro-3-ethyl-2-((3R,4S) or (3S,4R)-3-fluorotetrahydro-2H-pyran-4-yl)-2,4,12,13-tetrahydro-11H-5,7-(azenometheno)dipyrazolo[3,4-b:5′,1′-g][1]oxa[4,6,8]triazacycloundecine], the IC50 was 2 nM in assay [1] and 4.9 nM in assay [2].

As for `[2H]C([2H])([2H])c1c2c(nn1[C@@H]1CCOC[C@H]1F)OCCCn1nc(Cl)c3cnc(nc31)N2` (single isomer, unassigned) [Example 63, (+)-8-Chloro-2-((3R,4S) or (3S,4R)-3-fluorotetrahydro-2H-pyran-4-yl)-3-(methyl-d3)-2,4,12,13-tetrahydro-11H-5,7-(azenometheno)dipyrazolo[3,4-b:5′,1′-g][1]oxa[4,6,8]triazacycloundecine], the values for the IC50 in assay [1] and in assay [2] were 4 nM and 11 nM, respectively.

`[2H]C([2H])([2H])c1c2c(nn1[C@H]1CCOC3(CC3)C1)OCCCn1nc(Cl)c3cnc(nc31)N2` (single isomer, unassigned) [Example 64, (−)-(R) or (S)-8-Chloro-3-(methyl-d3)-2-(4-oxaspiro[2.5]octan-7-yl)-2,4,12,13-tetrahydro-11H-5,7-(azenometheno)dipyrazolo[3,4-b:5′,1′-g][1]oxa[4,6,8]triazacycloundecine]: the IC50 in assay [1] came to 5 nM; in assay [2] it was 11 nM.

Regarding `[2H]C([2H])([2H])c1c2c(nn1[C@H]1CCOC3(CC3)C1)OCCCn1nc(Cl)c3cnc(nc31)N2` (single isomer, unassigned) [Example 65, (+)-(R) or (S)-8-Chloro-3-(methyl-d3)-2-(4-oxaspiro[2.5]octan-7-yl)-2,4,12,13-tetrahydro-11H-5,7-(azenometheno)dipyrazolo[3,4-b:5′,1′-g][1]oxa[4,6,8]triazacycloundecine], the IC50 in assay [1] worked out at 1.7 nM; in assay [2] it was 4.8 nM.

As for `Cc1c2c(nn1C)OCCCn1nc(Cl)c3cnc(nc31)N2` [Example 1, 8-Chloro-2,3-dimethyl-2,4,12,13-tetrahydro-11H-5,7-(azenometheno)dipyrazolo[3,4-b:5′,1′-g][1]oxa[4,6,8]triazacycloundecine], the IC50 amounted to 18 nM in assay [1] and 55 nM in assay [2].

As to `Cc1nn2c3nc(ncc13)Nc1c(nn(C3CCOCC3)c1C)OCCC2` [Example 8, 3,8-Dimethyl-2-(tetrahydro-2H-pyran-4-yl)-2,4,12,13-tetrahydro-11H-5,7-(azenometheno)dipyrazolo[3,4-b:5′,1′-g][1]oxa[4,6,8]triazacycloundecine], the IC50 in assay [1] stood at 21 nM; in assay [2] it was 93 nM.

Consider `Cc1c2c(nn1C1CCOCC1)OCCCn1nc(C#N)c3cnc(nc31)N2` [Example 9, 3-Methyl-2-(tetrahydro-2H-pyran-4-yl)-2,4,12,13-tetrahydro-11H-5,7-(azenometheno)dipyrazolo[3,4-b:5′,1′-g][1]oxa[4,6,8]triazacycloundecine-8-carbonitrile], for which the concentration for half-maximal inhibition (IC50) in assay [1] worked out at 57 nM; in assay [2], 110 nM.

For `Cc1c2c(nn1CC13CC(CO1)C3)OCCCn1nc(Cl)c3cnc(nc31)N2` [Example 11, 2-((2-Oxabicyclo[2.1.1]hexan-1-yl)methyl)-8-chloro-3-methyl-2,4,12,13-tetrahydro-11H-5,7-(azenometheno)dipyrazolo[3,4-b:5′,1′-g][1]oxa[4,6,8]triazacycloundecine], the IC50 in assay [1] is 4.6 nM; in assay [2] it was 14 nM.

In the case of `FC1(c2c3c(nn2C2CCOCC2)OCCCn2nc(Cl)c4cnc(nc42)N3)CC1` [Example 16, 8-Chloro-3-(1-fluorocyclopropyl)-2-(tetrahydro-2H-pyran-4-yl)-2,4,12,13-tetrahydro-11H-5,7-(azenometheno)dipyrazolo[3,4-b:5′,1′-g][1]oxa[4,6,8]triazacycloundecine], the IC50 came out at 16 nM in assay [1] and 60 nM in assay [2].

In the case of `[2H]C1([2H])Oc2nn(C3CCOCC3)c(C)c2Nc2ncc3c(Cl)nn(c3n2)C([2H])([2H])C1([2H])[2H]` [Example 20, 8-Chloro-3-methyl-2-(tetrahydro-2H-pyran-4-yl)-2,4,12,13-tetrahydro-11H-5,7-(azenometheno)dipyrazolo[3,4-b:5′,1′-g][1]oxa[4,6,8]triazacycloundecine-11,11,12,12,13,13-d6], the concentration for half-maximal inhibition (IC50) in assay [1] came out at 5.1 nM; in assay [2], 14 nM.

`Cc1c2c(nn1C1CCC(F)(F)CC1)OCCCn1nc(Cl)c3cnc(nc31)N2` [Example 26, 8-Chloro-2-(4,4-difluorocyclohexyl)-3-methyl-2,4,12,13-tetrahydro-11H-5,7-(azenometheno)dipyrazolo[3,4-b:5′,1′-g][1]oxa[4,6,8]triazacycloundecine]: the IC50 in assay [1] came out at 5.9 nM; in assay [2], 21 nM.

As to `Cc1c2c(nn1C1CC3(COC3)C1)OCCCn1nc(Cl)c3cnc(nc31)N2` [Example 34, 8-Chloro-3-methyl-2-(2-oxaspiro[3.3]heptan-6-yl)-2,4,12,13-tetrahydro-11H-5,7-(azenometheno)dipyrazolo[3,4-b:5′,1′-g][1]oxa[4,6,8]triazacycloundecine], the half-maximal inhibitory concentration (IC50) is 5.7 nM in assay [1] and 18 nM in assay [2].

On to `[2H]C([2H])([2H])c1c2c(nn1C1CCOCC1)OC([2H])([2H])C([2H])([2H])C([2H])([2H])n1nc(Cl)c3cnc(nc31)N2` [Example 35, 8-Chloro-3-(methyl-d3)-2-(tetrahydro-2H-pyran-4-yl)-2,4,12,13-tetrahydro-11H-5,7-(azenometheno)dipyrazolo[3,4-b:5′,1′-g][1]oxa[4,6,8]triazacycloundecine-11,11,12,12,13,13-d6], for which the IC50 was 5.3 nM in assay [1] and 15 nM in assay [2].

With `Cc1c2c(nn1C1(C#N)CC1)OCCCn1nc(Cl)c3cnc(nc31)N2` [Example 36, 1-(8-Chloro-3-methyl-12,13-dihydro-11H-5,7-(azenometheno)dipyrazolo[3,4-b:5′,1′-g][1]oxa[4,6,8]triazacycloundecin-2(4H)-yl)cyclopropane-1-carbonitrile], the IC50 is 7.2 nM in assay [1] and 23 nM in assay [2].

For `[2H]C1([2H])CCOc2nn(C3CCOCC3)c(C)c2Nc2ncc3c(Cl)nn1c3n2` [Example 45, 8-Chloro-3-methyl-2-(tetrahydro-2H-pyran-4-yl)-2,4,12,13-tetrahydro-11H-5,7-(azenometheno)dipyrazolo[3,4-b:5′,1′-g][1]oxa[4,6,8]triazacycloundecine-11,11-d2], the IC50 in assay [1] turned out to be 3.6 nM; in assay [2], 13 nM.

On to `[2H]C1([2H])CCn2nc(Cl)c3cnc(nc32)Nc2c(nn(C3CCOCC3)c2C)O1` [Example 46, 8-Chloro-3-methyl-2-(tetrahydro-2H-pyran-4-yl)-2,4,12,13-tetrahydro-11H-5,7-(azenometheno)dipyrazolo[3,4-b:5′,1′-g][1]oxa[4,6,8]triazacycloundecine-13,13-d2], for which the IC50 in assay [1] was found to be 3.1 nM; in assay [2], 12 nM.

Turning to `Cc1c2c(nn1CC1CCOCC1)OCCCn1nc(Cl)c3cnc(nc31)N2` [Example 49, 8-Chloro-3-methyl-2-((tetrahydro-2H-pyran-4-yl)methyl)-2,4,12,13-tetrahydro-11H-5,7-(azenometheno)dipyrazolo[3,4-b:5′,1′-g][1]oxa[4,6,8]triazacycloundecine], the IC50 is 4.7 nM in assay [1] and 9.4 nM in assay [2].
